We go through 22 compounds from patent publication US11286263B2, “Macrocyclic fluorine substituted indole derivatives” (The Broad Institute, Inc., priority 2017, dated 2022).

For the test, the target named is MCL-1 (Homo sapiens (Human), UniProt Q07820, K194A/K197A/R201A). The test can be described thus: Protein-protein interaction assay MCL-1/Noxa BH3 peptide (MCL-1 assay), TR-FRET. The test is classed as binding. The conditions noted are these: MCL-1/Noxa BH3 peptide TR-FRET; median. The gist of the method: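 TR-FRET competition between MBP-MCL-1 (173-321, 1 nM) and biotin-Noxa BH3 peptide (1 nM) with anti-MBP-Eu/streptavidin-XL665; 11 compound levels 0.1 nM–20 μM, 10 min preincubation. Incubated 1 h at 22 °C then overnight at 4 °C, pH 7 Tris buffer. 665/620 ratio normalized to DMSO and no-MCL-1; 4-parameter IC50.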
Sequence of MCL-1 (Q07820 whole entry K194A/K197A/R201A, looked up): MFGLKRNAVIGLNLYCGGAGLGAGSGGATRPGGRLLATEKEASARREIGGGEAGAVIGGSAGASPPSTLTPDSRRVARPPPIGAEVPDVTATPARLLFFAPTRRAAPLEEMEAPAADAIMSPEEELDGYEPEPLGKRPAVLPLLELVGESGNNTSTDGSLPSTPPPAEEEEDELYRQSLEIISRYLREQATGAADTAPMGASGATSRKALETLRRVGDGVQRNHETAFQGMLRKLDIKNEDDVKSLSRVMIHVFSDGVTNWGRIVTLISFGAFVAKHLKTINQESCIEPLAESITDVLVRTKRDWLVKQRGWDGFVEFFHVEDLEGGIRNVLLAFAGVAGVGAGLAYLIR

Broadly, the IC50 is the midpoint of a concentration-inhibition curve. Read a high IC50 as weaker potency. `Cc1c2c(nn1C)COC/C=C\Cn1c(C(=O)O)c(CCCOc3cccc4ccccc34)c3ccc(F)c-2c31` (racemic) [Example 1, (rac)-(11Z)-4-fluoro-2,3-dimethyl-7-[3-(naphthalen-1-yloxy)propyl]-2,10,13,15-tetrahydro-pyrazolo[4′,3′:9,10][1,6]oxazacycloundecino[8,7,6-hi]indole-8-carboxylic acid] had an IC50 of 1.8 nM. The result for `Cc1c2c(nn1C)COCCCCn1c(C(=O)O)c(CCCOc3cccc4ccccc34)c3ccc(F)c-2c31` (racemic) [Example 2, (rac)-4-fluoro-2,3-dimethyl-7-[3-(naphthalen-1-yloxy)propyl]-2,10,11,12,13,15-hexahydro-pyrazolo[4′,3′:9,10][1,6]oxazacycloundecino[8,7,6-hi]indole-8-carboxylic acid] reads 1.2 nM. Next, `CCc1c2c(nn1C)COC/C=C\Cn1c(C(=O)O)c(CCCOc3cccc4ccccc34)c3ccc(F)c-2c31` (racemic) [Example 5, (rac)-(11Z)-3-ethyl-4-fluoro-2-methyl-7-[3-(naphthalen-1-yloxy)propyl]-2,10,13,15-tetrahydro-pyrazolo[4′,3′:9,10][1,6]oxazacycloundecino[8,7,6-hi]indole-8-carboxylic acid]: 2.3 nM; `Cc1nn(C)c2c1-c1c(F)ccc3c(CCCOc4cccc5ccccc45)c(C(=O)O)n(c13)C/C=C\COC2` (racemic) [Example 9, (rac)-(Z)-13-fluoro-10,12-dimethyl-1-(3-(naphthalen-1-yloxy)propyl)-4,7,9,10-tetrahydro-pyrazolo[4′,3′:9,10][1]oxa[6]azacycloundecino[8,7,6-hi]indole-2-carboxylic acid]: 2.4 nM. The result for `Cc1nn(C)c2c1-c1c(F)ccc3c(CCCOc4cccc5ccccc45)c(C(=O)O)n(c13)CCCCOC2` (racemic) [Example 10, (rac)-13-fluoro-10,12-dimethyl-1-(3-(naphthalen-1-yloxy)propyl)-4,5,6,7,9,10-hexahydro-pyrazolo[4′,3′:9,10][1]oxa[6]azacycloundecino[8,7,6-hi]indole-2-carboxylic acid] reads 1.1 nM; that for `CCc1nn(C)c2c1-c1c(F)ccc3c(CCCOc4cccc5ccccc45)c(C(=O)O)n(c13)C/C=C\COC2` (racemic) [Example 11, (rac)-(Z)-12-ethyl-13-fluoro-10-methyl-1-(3-(naphthalen-1-yloxy)propyl)-4,7,9,10-tetrahydro-pyrazolo[4′,3′:9,10][1]oxa[6]azacycloundecino[8,7,6-hi]indole-2-carboxylic acid], 2.2 nM. `Cc1c2c(nn1C)COCCCCn1c(C(=O)O)c(CCCOc3ccc(F)c4ccccc34)c3ccc(F)c-2c31` (racemic) [Example 15, (rac)-13-fluoro-1-(3-((4-fluoronaphthalen-1-yl)oxy)propyl)-11,12-dimethyl-4,5,6,7,9,11-hexahydropyrazolo[4′,3′:9,10][1]oxa[6]azacycloundecino[8,7,6-hi]indole-2-carboxylic acid] showed an IC50 of 1.3 nM. Next, `Cc1c2c(nn1C)COCCCCn1c(C(=O)O)c(CCCOc3cccc4c3CCCC4)c3ccc(F)c-2c31` (racemic) [Example 18, (rac)-13-fluoro-11,12-dimethyl-1-(3-((5,6,7,8-tetrahydronaphthalen-1-yl)oxy)propyl)-4,5,6,7,9,11-hexahydropyrazolo[4′,3′:9,10][1]oxa[6]azacycloundecino[8,7,6-hi]indole-2-carboxylic acid]: 1.6 nM; `Cc1c2c(nn1C)COCCCCn1c(C(=O)O)c(CCCOc3cccc4c3CCC4)c3ccc(F)c-2c31` (racemic) [Example 19, (rac)-1-(3-((2,3-dihydro-1H-inden-4-yl)oxy)propyl)-13-fluoro-11,12-dimethyl-4,5,6,7,9,11-hexahydropyrazolo[4′,3′:9,10][1]oxa[6]azacycloundecino[8,7,6-hi]indole-2-carboxylic acid]: 1.5 nM; `Cc1cc(OCCCc2c(C(=O)O)n3c4c(c(F)ccc24)-c2c(nn(C)c2C)COCCCC3)cc(C)c1Cl` (racemic) [Example 20, (rac)-1-(3-(4-chloro-3,5-dimethylphenoxy)propyl)-13-fluoro-11,12-dimethyl-4,5,6,7,9,11-hexahydropyrazolo[4′,3′:9,10][1]oxa[6]azacycloundecino[8,7,6-hi]indole-2-carboxylic acid]: 1.5 nM. Next, `CCc1c2c(nn1C)COCCCCn1c(C(=O)O)c(CCCOc3cccc4c3CCCC4)c3ccc(F)c-2c31` (racemic) [Example 29, (rac)-12-ethyl-13-fluoro-11-methyl-1-(3-((5,6,7,8-tetrahydronaphthalen-1-yl)oxy)propyl)-4,5,6,7,9,11-hexahydropyrazolo[4′,3′:9,10][1]oxa[6]azacycloundecino[8,7,6-hi]indole-2-carboxylic acid]: 1.5 nM; `CCc1c2c(nn1C)COCCCCn1c(C(=O)O)c(CCCOc3cc(C)c(Cl)c(C)c3)c3ccc(F)c-2c31` (racemic) [Example 31, (rac)-1-(3-(4-chloro-3,5-dimethylphenoxy)propyl)-12-ethyl-13-fluoro-11-methyl-4,5,6,7,9,11-hexahydropyrazolo[4′,3′:9,10][1]oxa[6]azacycloundecino[8,7,6-hi]indole-2-carboxylic acid]: 1.8 nM; `Cc1nn(C)c2c1-c1c(F)ccc3c(CCCOc4cccc5cc(F)ccc45)c(C(=O)O)n(c13)CCCCOC2` (racemic) [Example 32, (rac)-13-fluoro-1-(3-((6-fluoronaphthalen-1-yl)oxy)propyl)-10,12-dimethyl-4,5,6,7,9,10-hexahydropyrazolo[4′,3′:9,10][1]oxa[6]azacycloundecino[8,7,6-hi]indole-2-carboxylic acid]: 1.1 nM. Next, `Cc1nn(C)c2c1-c1c(F)ccc3c(CCCOc4ccc(F)c5ccccc45)c(C(=O)O)n(c13)CCCCOC2` (racemic) [Example 33, (rac)-13-fluoro-1-(3-((4-fluoronaphthalen-1-yl)oxy)propyl)-10,12-dimethyl-4,5,6,7,9,10-hexahydropyrazolo[4′,3′:9,10][1]oxa[6]azacycloundecino[8,7,6-hi]indole-2-carboxylic acid]: 1.7 nM; `Cc1nn(C)c2c1-c1c(F)ccc3c(CCCOc4cccc5c4CCCC5)c(C(=O)O)n(c13)CCCCOC2` (racemic) [Example 34, (rac)-13-fluoro-10,12-dimethyl-1-(3-((5,6,7,8-tetrahydronaphthalen-1-yl)oxy)propyl)-4,5,6,7,9,10-hexahydropyrazolo[4′,3′:9,10][1]oxa[6]azacycloundecino[8,7,6-hi]indole-2-carboxylic acid]: 1.3 nM; `Cc1nn(C)c2c1-c1c(F)ccc3c(CCCOc4cccc5c4CCC5)c(C(=O)O)n(c13)CCCCOC2` (racemic) [Example 35, (rac)-1-(3-((2,3-dihydro-1H-inden-4-yl)oxy)propyl)-13-fluoro-10,12-dimethyl-4,5,6,7,9,10-hexahydropyrazolo[4′,3′:9,10][1]oxa[6]azacycloundecino[8,7,6-hi]indole-2-carboxylic acid]: 1.3 nM. In turn, `Cc1cc(OCCCc2c(C(=O)O)n3c4c(c(F)ccc24)-c2c(C)nn(C)c2COCCCC3)cc(C)c1Cl` (racemic) [Example 36, (rac)-1-(3-(4-chloro-3,5-dimethylphenoxy)propyl)-13-fluoro-10,12-dimethyl-4,5,6,7,9,10-hexahydropyrazolo[4′,3′:9,10][1]oxa[6]azacycloundecino[8,7,6-hi]indole-2-carboxylic acid] registered an IC50 of 2.1 nM. Compared with the last compound, the IC50 is about 1.6-fold higher. The result for `CCc1nn(C)c2c1-c1c(F)ccc3c(CCCOc4cccc5ccccc45)c(C(=O)O)n(c13)CCCCOC2` (racemic) [Example 37, (rac)-12-ethyl-13-fluoro-10-methyl-1-(3-(naphthalen-1-yloxy)propyl)-4,5,6,7,9,10-hexahydro-pyrazolo[4′,3′:9,10][1]oxa[6]azacycloundecino[8,7,6-hi]indole-2-carboxylic acid] reads 1.2 nM; that for `CCc1nn(C)c2c1-c1c(F)ccc3c(CCCOc4cccc5c4CCCC5)c(C(=O)O)n(c13)CCCCOC2` (racemic) [Example 44, (rac)-12-ethyl-13-fluoro-10-methyl-1-(3-((5,6,7,8-tetrahydronaphthalen-1-yl)oxy)propyl)-4,5,6,7,9,10-hexahydropyrazolo[4′,3′:9,10][1]oxa[6]azacycloundecino[8,7,6-hi]indole-2-carboxylic acid], 1.7 nM; that for `CCc1nn(C)c2c1-c1c(F)ccc3c(CCCOc4cccc5c4CCC5)c(C(=O)O)n(c13)CCCCOC2` (racemic) [Example 45, (rac)-1-(3-((2,3-dihydro-1H-inden-4-yl)oxy)propyl)-12-ethyl-13-fluoro-10-methyl-4,5,6,7,9,10-hexahydropyrazolo[4′,3′:9,10][1]oxa[6]azacycloundecino[8,7,6-hi]indole-2-carboxylic acid], 1.4 nM. The result for `CCc1nn(C)c2c1-c1c(F)ccc3c(CCCOc4cc(C)c(Cl)c(C)c4)c(C(=O)O)n(c13)CCCCOC2` (racemic) [Example 46, (rac)-1-(3-(4-chloro-3,5-dimethylphenoxy)propyl)-12-ethyl-13-fluoro-10-methyl-4,5,6,7,9,10-hexahydropyrazolo[4′,3′:9,10][1]oxa[6]azacycloundecino[8,7,6-hi]indole-2-carboxylic acid] reads 2 nM. Next, `CCc1c2c(nn1C)CN(C)CCCCn1c(C(=O)O)c(CCCOc3cccc4c3CCC4)c3ccc(F)c-2c31` (racemic) [Example 51, (rac)-7-[3-(2,3-dihydro-1H-inden-4-yloxy)propyl]-3-ethyl-4-fluoro-2,14-dimethyl-10,11,12,13,14,15-hexahydro-2H-pyrazolo[3′,4′:8,9][1,6]diazacycloundecino[10,11,1-hi]indole-8-carboxylic acid]: 0.91 nM.
